# Target: T1, hDGAT1 (Homo sapiens, UniProt O75907)
# T1 construct: host or cells: Sf9 insect cells (baculovirus); microsomal preparation
# T1 sequence (O75907 1-488): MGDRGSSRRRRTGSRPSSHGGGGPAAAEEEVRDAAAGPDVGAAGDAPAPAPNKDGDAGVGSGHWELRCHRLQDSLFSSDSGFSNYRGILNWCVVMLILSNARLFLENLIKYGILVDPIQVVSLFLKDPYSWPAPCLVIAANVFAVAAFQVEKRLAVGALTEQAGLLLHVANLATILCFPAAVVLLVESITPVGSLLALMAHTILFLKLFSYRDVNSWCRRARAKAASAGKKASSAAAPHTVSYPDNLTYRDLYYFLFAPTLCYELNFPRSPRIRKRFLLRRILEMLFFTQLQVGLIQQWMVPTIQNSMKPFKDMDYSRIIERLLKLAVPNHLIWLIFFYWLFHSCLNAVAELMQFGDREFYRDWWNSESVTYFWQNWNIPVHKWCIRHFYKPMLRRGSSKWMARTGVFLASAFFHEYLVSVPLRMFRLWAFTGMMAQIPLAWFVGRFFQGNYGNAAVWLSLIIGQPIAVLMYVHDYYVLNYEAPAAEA
# Assay: In-vitro DGAT1 assay (hDGAT1 microsomes from Sf9 cells, 14C oleoyl CoA, triglyceride formation)
# Type: biochemical
# Conditions: At 1 μM
# How it was run: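 Human DGAT1 in baculovirus-infected Sf9 microsomes (2.5–10 μg), [14C]oleoyl-CoA with 409.5, 1228.5 or 1638 μM 1,2-dioleoyl-sn-glycerol, Tris-HCl pH 7.4 buffer with BSA. Compounds screened at 10, 5 and 1 μM in duplicate. Reaction 10 min at 37 °C; heptane-extracted [14C]triglyceride counted by scintillation.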
row,inhibition at 1 µM,Compound
1,0 to 50%,"CC(C)C(NC(=O)c1cc(-c2ccc(Oc3nc4ccc(F)cc4s3)cc2)no1)C(=O)O (stereo not drawn) [Example 335, 2-(3-(4-(6-fluorobenzo[d]thiazol-2-yloxy)phenyl)isoxazole-5-carboxamido)-3-methylbutanoic acid]"
2,0 to 50%,"CC(C)C(NC(=O)c1cc(-c2ccc(NC(=O)C(=O)Nc3cccc(C(F)(F)F)c3)cc2)no1)C(=O)O (stereo not drawn) [Example 337, 3-Methyl-2-(3-(4-(2-oxo-2-(3-(trifluoromethyl)phenylamino)acetamido)phenyl)isoxazole-5-carboxamido)butanoic acid]"
3,0 to 50%,"CC(C)C(NC(=O)c1cc(-c2ccc(NC(=O)C(=O)Nc3ccc(F)cc3F)cc2)no1)C(=O)O (stereo not drawn) [Example 339, 2-(3-(4-(2-(2,4-difluorophenylamino)-2-oxoacetamido)phenyl)isoxazole-5-carboxamido)-3-methylbutanoic acid]"
4,0 to 50%,"CC(C)C(NC(=O)c1cc(-c2ccc(NC(=O)[C@H](O)c3ccccc3)cc2)no1)C(=O)O (stereo partly drawn) [Example 341, 2-(3-(4-((R)-2-hydroxy-2-phenylacetamido)phenyl)isoxazole-5-carboxamido)-3-methylbutanoic acid]"
5,0 to 50%,"CC(C)[C@H](NC(=O)c1csc(-c2ccc(NC(=O)Nc3ccc(F)cc3F)cc2)n1)C(=O)O [Example 359, (S)-2-(2-(4-(3-(2,4-difluorophenyl)ureido)phenyl)thiazole-4-carboxamido)-3-methylbutanoic acid]"
6,0 to 50%,"CC(C)[C@H](NC(=O)c1csc(-c2ccc(NC(=O)Nc3ccc4c(c3)CCC4)cc2)n1)C(=O)O [Example 361, (S)-2-(2-(4-(3-(2,3-dihydro-1H-inden-5-yl)ureido)phenyl)thiazole-4-carboxamido)-3-methylbutanoic acid]"
7,0 to 50%,"Cc1ccc(NC(=O)Nc2ccc(-c3nc(C(=O)N[C@H](C(=O)O)C(C)C)cs3)cc2)cc1C [Example 363, (S)-2-(2-(4-(3-(3,4-dimethylphenyl)ureido)phenyl)thiazole-4-carboxamido)-3-methylbutanoic acid]"
8,50 to 75%,"CC(C)[C@H](NC(=O)c1csc(-c2ccc(NC(=O)Nc3ccc(Cl)cc3Oc3ccccc3)cc2)n1)C(=O)O [Example 365, (S)-2-(2-(4-(3-(4-chloro-2-phenoxyphenyl)ureido)phenyl)thiazole-4-carboxamido)-3-methylbutanoic acid]"
9,0 to 50%,"CC(C)[C@H](NC(=O)c1csc(-c2ccc(NC(=O)Nc3cccc(C(F)(F)F)c3)cc2)n1)C(=O)O [Example 367, (S)-3-Methyl-2-(2-(4-(3-(3-(trifluoromethyl)phenyl)ureido)phenyl)thiazole-4-carboxamido)butanoic acid]"
10,0 to 50%,"CC(C)[C@H](NC(=O)c1csc(-c2ccc(NC(=O)Nc3ccccc3Cl)cc2)n1)C(=O)O [Example 369, (S)-2-(2-(4-(3-(2-Chlorophenyl)ureido)phenyl)thiazole-4-carboxamido)-3-methylbutanoic acid]"
11,0 to 50%,"CC(C)[C@H](NC(=O)c1csc(-c2ccc(NC(=O)Nc3ccc(F)c(F)c3)cc2)n1)C(=O)O [Example 371, (S)-2-(2-(4-(3-(3,4-Difluorophenyl)ureido)phenyl)thiazole-4-carboxamido)-3-methylbutanoic acid]"

# Same assay, conditions: At 5 μM
row,inhibition at 5 µM,Compound
1,50 to 75%,"CC(C)[C@H](NC(=O)c1nc(-c2ccc(NC(=O)Nc3ccc(F)cc3)cc2)no1)C(=O)O [Example 343, (S)-2-(3-(4-(3-(4-Fluorophenyl)ureido)phenyl)-1,2,4-oxadiazole-5-carboxamido)-3-methylbutanoic acid]"
2,0 to 50%,"COC(=O)[C@@H](NC(=O)c1nc(-c2ccc(NC(=O)Nc3ccc(OC)cc3)cc2)no1)C(C)C [Example 344, (S)-Methyl 2-(3-(4-(3-(4-methoxyphenyl)ureido)phenyl)-1,2,4-oxadiazole-5-carboxamido)-3-methylbutanoate]"
3,50 to 75%,"COc1ccc(NC(=O)Nc2ccc(-c3noc(C(=O)N[C@H](C(=O)O)C(C)C)n3)cc2)cc1 [Example 345, (S)-2-(3-(4-(3-(4-methoxyphenyl)ureido)phenyl)-1,2,4-oxadiazole-5-carboxamido)-3-methylbutanoic acid]"
4,50 to 75%,"COC(=O)[C@@H](NC(=O)c1nc(-c2ccc(NC(=O)Nc3ccc(C)cc3)cc2)no1)C(C)C [Example 346, (S)-Methyl 3-methyl-2-(3-(4-(3-p-tolylureido)phenyl)-1,2,4-oxadiazole-5-carboxamido)butanoate]"
5,50 to 75%,"Cc1ccc(NC(=O)Nc2ccc(-c3noc(C(=O)N[C@H](C(=O)O)C(C)C)n3)cc2)cc1 [Example 347, (S)-3-Methyl-2-(3-(4-(3-p-tolylureido)phenyl)-1,2,4-oxadiazole-5-carboxamido)butanoic acid]"
6,0 to 50%,"COC(=O)[C@@H](NC(=O)c1nc(-c2ccc(NC(=O)Nc3ccccc3F)cc2)no1)C(C)C [Example 348, (S)-methyl 2-(3-(4-(3-(2-fluorophenyl)ureido)phenyl)-1,2,4-oxadiazole-5-carboxamido)-3-methylbutanoate]"
7,50 to 75%,"CC(C)[C@H](NC(=O)c1nc(-c2ccc(NC(=O)Nc3ccccc3F)cc2)no1)C(=O)O [Example 349, (S)-2-(3-(4-(3-(2-Fluorophenyl)ureido)phenyl)-1,2,4-oxadiazole-5-carboxamido)-3-methylbutanoic acid]"
8,0 to 50%,"COC(=O)[C@@H](NC(=O)c1nc(-c2ccc(NS(=O)(=O)c3ccc(F)cc3F)cc2)no1)C(C)C [Example 350, (S)-methyl 2-(3-(4-(2,4-difluorophenylsulfonamido)phenyl)-1,2,4-oxadiazole-5-carboxamido)-3-methylbutanoate]"
9,0 to 50%,"COC(=O)[C@@H](NC(=O)c1nc(-c2ccc(NC(=O)Nc3ccccc3)cc2)no1)C(C)C [Example 351, (S)-Methyl 3-methyl-2-(3-(4-(3-phenylureido)phenyl)-1,2,4-oxadiazole-5-carboxamido)butanoate]"
10,0 to 50%,"COC(=O)[C@@H](NC(=O)c1nc(-c2ccc(NC(=O)NCc3ccccc3)cc2)no1)C(C)C [Example 352, (S)-methyl 2-(3-(4-(3-benzylureido)phenyl)-1,2,4-oxadiazole-5-carboxamido)-3-methylbutanoate]"
11,0 to 50%,"COC(=O)[C@@H](NC(=O)c1nc(-c2ccc(NC(=S)Nc3cccc(F)c3)cc2)no1)C(C)C [Example 353, (S)-Methyl 2-(3-(4-(3-(3-fluorophenyl)thioureido)phenyl)-1,2,4-oxadiazole-5-carboxamido)-3-methylbutanoate]"
12,0 to 50%,"COC(=O)[C@@H](NC(=O)c1nc(-c2ccc(NC(=S)Nc3ccc(F)cc3)cc2)no1)C(C)C [Example 354, (S)-Methyl 2-(3-(4-(3-(4-fluorophenyl)thioureido)phenyl)-1,2,4-oxadiazole-5-carboxamido)-3-methylbutanoate]"
13,50 to 75%,"COC(=O)[C@@H](NC(=O)c1nc(-c2ccc(NC(=S)Nc3ccccc3F)cc2)no1)C(C)C [Example 355, (S)-methyl 2-(3-(4-(3-(2-fluorophenyl)thioureido)phenyl)-1,2,4-oxadiazole-5-carboxamido)-3-methylbutanoate]"
14,50 to 75%,"COC(=O)[C@@H](NC(=O)c1nc(-c2ccc(NC(=S)NCc3ccccc3)cc2)no1)C(C)C [Example 356, (S)-methyl 2-(3-(4-(3-benzylthioureido)phenyl)-1,2,4-oxadiazole-5-carboxamido)-3-methylbutanoate]"
15,0 to 50%,"COC(=O)[C@@H](NC(=O)c1nc(-c2ccc(NC(=S)Nc3ccccc3)cc2)no1)C(C)C [Example 357, (S)-methyl 3-methyl-2-(3-(4-(3-phenylthioureido)phenyl)-1,2,4-oxadiazole-5-carboxamido)butanoate]"

# Same assay, conditions: At 10 μM
row,% inhibition of hDGAT1,Compound
1,++ (>50% Inhibition ≦75),(S)-({3-[4-(6-Fluoro-benzothiazol-2-ylamino)-phenyl]-isoxazole-5-carbothioyl}-amino)-phenyl-acetic acid [Example 55]

# Reference: patent publication US8835428B2, “Diacylglycerol acyltransferase inhibitors” (Piramal Enterprises Limited, priority 2008, dated 2014)
